Data taken from paper PMC11225630 (Journal of Oral Microbiology, 2024).
Where a SMILES comes first, the peptide text is derived from it.

Legend:
Assay in all cases: AMC release by intact cells, fluorescence
Format in all cases: cell-based
Conditions in all cases: 20 uM; 50 mM phosphate, 5 mM EDTA, 100 mM NaCl, 37 C, 3 h
DPP11 = biological target: T1, DPP11 (Porphyromonas gingivalis, UniProt B2RID1)
T1 sequence (B2RID1 22-720): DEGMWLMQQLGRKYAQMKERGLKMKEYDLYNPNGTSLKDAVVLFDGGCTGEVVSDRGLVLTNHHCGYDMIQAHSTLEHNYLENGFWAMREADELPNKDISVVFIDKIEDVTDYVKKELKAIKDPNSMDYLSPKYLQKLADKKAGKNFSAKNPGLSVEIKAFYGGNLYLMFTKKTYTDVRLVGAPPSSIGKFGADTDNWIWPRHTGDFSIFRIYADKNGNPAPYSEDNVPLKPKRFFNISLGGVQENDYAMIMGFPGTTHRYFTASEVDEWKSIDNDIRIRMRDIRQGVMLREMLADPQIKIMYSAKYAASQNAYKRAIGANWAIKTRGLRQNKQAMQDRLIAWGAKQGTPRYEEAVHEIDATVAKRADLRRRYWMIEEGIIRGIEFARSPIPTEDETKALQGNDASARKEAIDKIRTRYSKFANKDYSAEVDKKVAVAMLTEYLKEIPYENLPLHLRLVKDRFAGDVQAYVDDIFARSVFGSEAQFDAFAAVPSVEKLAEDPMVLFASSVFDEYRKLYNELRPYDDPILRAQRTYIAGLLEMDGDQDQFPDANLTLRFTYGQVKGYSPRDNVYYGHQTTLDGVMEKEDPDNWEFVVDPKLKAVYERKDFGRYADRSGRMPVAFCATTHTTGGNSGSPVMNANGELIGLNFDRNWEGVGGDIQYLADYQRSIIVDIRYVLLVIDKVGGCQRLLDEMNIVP

DPP4 = DPP4 (Porphyromonas gingivalis, UniProt B2RKU3)
DPP5 = biological target: T2, DPP5 (Porphyromonas gingivalis, UniProt B2RIT0)
T2 sequence (B2RIT0 25-684): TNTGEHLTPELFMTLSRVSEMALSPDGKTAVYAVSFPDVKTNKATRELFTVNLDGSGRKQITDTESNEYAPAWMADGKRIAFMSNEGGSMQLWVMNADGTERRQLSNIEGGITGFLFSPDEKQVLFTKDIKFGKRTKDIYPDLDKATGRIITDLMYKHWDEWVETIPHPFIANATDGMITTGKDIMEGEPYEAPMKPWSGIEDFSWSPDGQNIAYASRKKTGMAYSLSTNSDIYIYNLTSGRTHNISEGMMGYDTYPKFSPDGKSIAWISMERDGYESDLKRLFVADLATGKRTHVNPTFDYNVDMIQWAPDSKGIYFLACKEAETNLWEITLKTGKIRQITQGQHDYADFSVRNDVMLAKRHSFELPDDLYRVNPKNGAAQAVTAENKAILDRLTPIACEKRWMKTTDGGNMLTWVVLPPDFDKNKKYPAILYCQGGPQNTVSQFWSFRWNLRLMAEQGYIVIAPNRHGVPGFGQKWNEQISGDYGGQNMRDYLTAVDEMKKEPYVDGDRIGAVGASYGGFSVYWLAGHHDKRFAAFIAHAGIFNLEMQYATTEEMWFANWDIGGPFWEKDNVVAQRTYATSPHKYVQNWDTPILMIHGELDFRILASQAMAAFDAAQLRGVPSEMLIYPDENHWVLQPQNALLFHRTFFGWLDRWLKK

Question: For `Cc1cc(=O)oc2cc(NC(=O)[C@H](CC(=O)O)NC(=O)[C@@H](N)CC(C)C)ccc12` [Leu-Asp-MCA] (HELM PEPTIDE1{L.D.[Cc1cc(=O)oc2cc(N[*:1])ccc12]}$$$$V2.0), which “AMC release by intact cells, fluorescence” value (shortened to “AMC release by intact cells”) (DPP11) is on record?
Answer: The value was “Leu-Asp-MCA (substrate of DPP11)”.

Question: For `Cc1cc(=O)oc2cc(NC(=O)[C@@H]3CCCN3C(=O)CN)ccc12` [Gly-Pro-MCA] (HELM PEPTIDE1{G.P.[Cc1cc(=O)oc2cc(N[*:1])ccc12]}$$$$V2.0), which “AMC release by intact cells” value (DPP4) is on record?
Answer: The value was “Gly-Pro-MCA (substrate of DPP4)”.

Question: With `Cc1cc(=O)oc2cc(NC(=O)[C@H](C)NC(=O)[C@@H](N)CCCCN)ccc12` [Lys-Ala-MCA] (HELM PEPTIDE1{K.A.[Cc1cc(=O)oc2cc(N[*:1])ccc12]}$$$$V2.0) as the compound, how does the “AMC release by intact cells” value (DPP5) read?
Answer: Its value is “Lys-Ala-MCA (substrate of DPP5)”.
